This note sets out measurements from paper PMC6442474 (Planta medica, 2014).

In general, IC50 refers to the concentration at which inhibition is half-maximal. Read a low IC50 as inhibition by little substance.

In the experiment the target is tau (2N4R) (Homo sapiens, UniProt P10636). Kind of experiment: arachidonic acid-induced tau aggregation, filter trap assay dose-response. Format: biochemical.
Sequence of tau (2N4R) (P10636 1-441 isoform P10636-8): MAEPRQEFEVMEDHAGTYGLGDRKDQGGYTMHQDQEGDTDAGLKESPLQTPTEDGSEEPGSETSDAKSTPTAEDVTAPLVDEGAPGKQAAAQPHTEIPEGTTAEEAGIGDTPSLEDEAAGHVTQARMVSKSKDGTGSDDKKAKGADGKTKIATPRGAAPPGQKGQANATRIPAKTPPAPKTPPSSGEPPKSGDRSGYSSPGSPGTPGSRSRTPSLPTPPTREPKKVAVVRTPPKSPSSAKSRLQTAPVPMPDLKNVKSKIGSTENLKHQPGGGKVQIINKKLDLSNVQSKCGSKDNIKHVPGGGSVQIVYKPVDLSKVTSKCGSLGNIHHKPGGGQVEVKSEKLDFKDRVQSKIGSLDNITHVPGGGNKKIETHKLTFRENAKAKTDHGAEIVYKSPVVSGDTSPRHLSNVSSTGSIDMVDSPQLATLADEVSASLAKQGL
`O=C1c2cc(CO)cc(O)c2C(=O)c2c1cc(O)c(O)c2O` [2,ω-dihydroxyemodin] registered an IC50 of 205 ± 28 µM.

In the case of `O=C1c2c(cc(CO)c(O)c2O)C(=O)c2c(O)c(O)cc(O)c21` [asperthecin], the IC50 amounted to 39 ± 2 µM.

asperbenzaldehyde yielded an IC50 of 177 ± 103 µM.
